This note sets out measurements from patent US20230255873A1, “COSMETIC OR DERMATOLOGICAL PEPTIDE-BASED TREATMENT OF THE SKIN AND ITS INTEGUMENTS” (Sederma, priority 2020, published 2023).

The star is where a group is joined. Palmitoyl = CCCCCCCCCCCCCCCC(=O)*

The subject of assay [1] is P. acnes. Description: P. acnes growth curve (time to OD600 nm = 0.5). The note with it: for Time (in hour) to reach OD600 nm = 0.5: vehicle 42-44 h. Format: cell-based, Propionibacterium acnes. On the procedure:
1—P. acnes growth curve (same protocol as described above at point 1.4)
P. acnes is thawed and grown over 3 days in M20 media. Then, optical density at 600 nm (OD600) is measured and 2×10^6 CFU*/mL are plated in well plates. P. acnes is then treated with 6 ppm, 9 ppm and 12 ppm of peptides. To follow bacterial cell multiplication, OD600 is measured regularly for about 1 week. […] Statistical evaluations are performed on results using a Student t test. Two independent experiments are performed (N=2).

Assay [2] relates to normal human keratinocytes (NHK). Description: Involucrin quantification by immunohistochemistry in NHK. Format: cell-based. The conditions noted are these: 5 ppm. On the procedure: Normal human keratinocytes (NHK) are grown on wells plate. When subconfluence was reached, cells received various concentrations of the peptides. After few days, evaluation of differentiation is compared to solvent control under microscope and cells are fixed to allow the study of involucrin by immunohistochemistry.
Involucrin is an early marker of keratinocytes differentiation. The below table show the percentage of variation of involucrin vs. Control.

In assay [3] the target is extracellular lipases of P. acnes (Propionibacterium acnes). Put plainly: cell-based or functional assay.

“Pal-KTSKT-OH (Palmitoyl-KTSKT-OH; SMILES CCCCCCCCCCCCCCCC(=O)N[C@@H](CCCCN)C(=O)N[C@H](C(=O)N[C@@H](CO)C(=O)N[C@@H](CCCCN)C(=O)N[C@H](C(=O)O)[C@@H](C)O)[C@@H](C)O) [other preferred peptide of the invention, palmitoyl pentapeptide KTSKT]”: the “Delay in P. acnes growth versus vehicle” value is reported as “+5 h” in assay [1] (6 ppm), “+13 h” in assay [1] (9 ppm) and “+43 h” in assay [1] (12 ppm). Also, the “Time (in hour) to reach OD600 nm = 0.5” value in assay [1] (6 ppm) amounted to 47.7 h; in assay [1] (9 ppm), 55.2 h; in assay [1] (12 ppm) it was 85.1 h. Besides, the “Involucrin (% var vs. Control)” value in assay [2] was “+125%; p < 0.01”.

For the molecule Pal-GKTSKS-OH, the “Delay in P. acnes growth versus vehicle” value in assay [1] (6 ppm) is recorded as “+2 h”; in assay [1] (9 ppm) it was “+12 h”; in assay [1] (12 ppm), “+26 h”. For the same molecule, the “Time (in hour) to reach OD600 nm = 0.5” value in assay [1] (6 ppm) is 45.6 h; in assay [1] (9 ppm) it was 56.2 h; in assay [1] (12 ppm), 70.2 h.

On to “Pal-KTSKSA-OH (Palmitoyl-KTSKSA-OH; SMILES CCCCCCCCCCCCCCCC(=O)N[C@@H](CCCCN)C(=O)N[C@H](C(=O)N[C@@H](CO)C(=O)N[C@@H](CCCCN)C(=O)N[C@@H](CO)C(=O)N[C@@H](C)C(=O)O)[C@@H](C)O) [other preferred peptide of the invention, palmitoyl hexapeptide KTSKSA]”, for which the “Delay in P. acnes growth versus vehicle” value in assay [1] (6 ppm) is “+5 h”; in assay [1] (9 ppm) it was “+15 h”; in assay [1] (12 ppm), “+18 h”. Also, the “Time (in hour) to reach OD600 nm = 0.5” value in assay [1] (6 ppm) came to 47.3 h; in assay [1] (9 ppm) it was 57.9 h; in assay [1] (12 ppm) it was 60.5 h. For the same molecule, the “Involucrin (% var vs. Control)” value in assay [2] was “+152%; p < 0.01”.

B1: Pal-KTSKS-OH (peptide)
peptide: Palmitoyl-KTSKS-OH
SMILES: CCCCCCCCCCCCCCCC(=O)N[C@@H](CCCCN)C(=O)N[C@H](C(=O)N[C@@H](CO)C(=O)N[C@@H](CCCCN)C(=O)N[C@@H](CO)C(=O)O)[C@@H](C)O
Regarding B1, in assay [3], the Reduction in lipase activity of P. acnes (4-MUO fluorescent probe), variation (%) vs solvent control, 6 ppm of peptide is -22%; the Reduction in lipase activity of P. acnes (4-MUO fluorescent probe), variation (%) vs solvent control, 9 ppm of peptide was -64%; the Reduction in lipase activity of P. acnes (4-MUO fluorescent probe), variation (%) vs solvent control, 12 ppm of peptide is -88%.
